# Calls of active or inactive are those of the source. The rule behind the calls is not given here.
# Key:
# [1] = test system: HepG2; assay: Phototoxicity against human HepG2 cells assessed as reduction in cell viability up to 100 uM irradiated with LED light at 1.7 J/cm'2 measured after 12 hrs by MTT assay; format: functional, cell-based
# [2] = Drug uptake in human HepG2 cells at 30 uM measured up to 10 hrs by fluorescence assay; format: ADME, cell-based; settings: hepg2, 10 h
# [3] = test system: HepG2; assay: Phototoxicity against human HepG2 cells assessed as reduction in cell viability preincubated overnight followed by irradiation with LED light at 1.7 J/cm'2 for 10 mins measured post overnight incubation by MTT assay; format: functional, cell-based; settings: HepG2, light or radiation study
# [4] = test system: HepG2; assay: Induction of intracellular ROS production in human HepG2 cells at 30 uM incubated for 10 hrs followed by DCF-DA addition for 20 mins in dark and irradiated with LED light at 1.7 J/cm'2 by fluorescence assay; format: functional, cell-based
# [5] = Dark toxicity against human HepG2 cells assessed as reduction in cell viability incubated overnight by MTT assay; format: cell-based
# [6] = Induction of singlet oxygen production in Tris-Hcl buffer after irradiation with LED light at 1.7 J/cm'2 at 100 uM at pH 7.4 by ATTA-Eu3+ probe based fluorescence microscopy
Compound,Activity [1],Drug uptake [2],IC50 [3] [µM],Activity [4],IC50 [5] [µM],Activity [6]
C=Cc1c(C)c2cc3nc(c(CC(=O)O)c4[nH]c(cc5nc(cc1[nH]2)C(C)=C5CC)c(C)c4C(=O)NCCNC(=O)CCC(=O)O[C@@H]1O[C@@H]2O[C@@]4(C)CC[C@H]5[C@H](C)CC[C@@H]([C@H]1C)[C@@]25OO4)[C@@H](CCC(=O)O)[C@@H]3C,Active,Active,1.8,Active,36.6,Active
C=Cc1c(C)c2cc3nc(c(CC(=O)O)c4[nH]c(cc5nc(cc1[nH]2)C(C)=C5CC)c(C)c4C(=O)O)[C@@H](CCC(=O)NCCNC(=O)CCC(=O)O[C@@H]1O[C@@H]2O[C@@]4(C)CC[C@H]5[C@H](C)CC[C@@H]([C@H]1C)[C@@]25OO4)[C@@H]3C,Active,Active,1.5,Active,29.1,Active
C[C@H]1[C@H](OC(=O)CCC(=O)O)O[C@@H]2O[C@@]3(C)CC[C@H]4[C@H](C)CC[C@@H]1[C@@]24OO3 [ARTESUNATE],Active,–,7.7,Active,6.5,–
C=Cc1c(C)c2cc3nc(c(CC(=O)NCCNC(=O)CCC(=O)O[C@@H]4O[C@@H]5O[C@@]6(C)CC[C@H]7[C@H](C)CC[C@@H]([C@H]4C)[C@@]57OO6)c4[nH]c(cc5nc(cc1[nH]2)C(C)=C5CC)c(C)c4C(=O)O)[C@@H](CCC(=O)O)[C@@H]3C,Active,Active,2.4,Active,57,Active
C=Cc1c(C)c2cc3nc(c(CC(=O)NCCNC(=O)CCC(=O)O[C@@H]4O[C@@H]5O[C@@]6(C)CC[C@H]7[C@H](C)CC[C@@H]([C@H]4C)[C@@]57OO6)c4[nH]c(cc5nc(cc1[nH]2)C(C)=C5CC)c(C)c4C(=O)NCCNC(=O)CCC(=O)O[C@@H]1O[C@@H]2O[C@@]4(C)CC[C@H]5[C@H](C)CC[C@@H]([C@H]1C)[C@@]25OO4)[C@@H](CCC(=O)NCCNC(=O)CCC(=O)O[C@@H]1O[C@@H]2O[C@@]4(C)CC[C@H]5[C@H](C)CC[C@@H]([C@H]1C)[C@@]25OO4)[C@@H]3C,Active,Active,0.8,Active,12.9,inactive
C=CC1=C(C)/C2=C/C3=NC(=C(/CC(=O)NCCNC(=O)OC(C)(C)C)c4[nH]c(c(C)c4C(=O)O)/C=C4\N=C(CC1N2)C(C)=C4CC)/[C@@H](CCC(=O)O)[C@@H]3C (stereo not given in full),–,Active,–,Active,–,–

# From ChEMBL document CHEMBL4043215, “Synergistic antiproliferative effect of chemo-phototherapy: Synthesis and photodynamic activity evaluation of novel Chlorin e6-artesunate conjugates as antiproliferative agents” (Bioorg Med Chem Lett, 2017)
